In US20090186844A1, “SiRNA DELIVERY INTO MAMMALIAN NERVE CELLS” (priority 2003, published 2009):
Structures can show the parent of a compound that is named as a salt.

Legend:
[1] = tested on: phrenic long-term facilitation (pLTF); assay: pLTF following intermittent hypoxia after intrathecal pretreatment; type: in vivo, rat; settings: for effect on pLTF: one anesthetized rat each, intrathecal, 30 min prior to intermittent hypoxia, UO126 0.4 mg, KN62/KN93 2 mg
Procedure: The phrenic nerve was dissected, cut distally and desheathed. A laminectomy was performed over C2, and a silicone catheter (2 French, Access Technologies; Skokie, Ill.) connected to a 50 μl glass syringe (Hamilton; Reno Nev.) was advanced through a small hole in the dura at C2, such that the tip of the catheter lay over C4-C5. Following surgery, rats were converted to urethane anesthesia (1.6 g/kg, i.v.) and were paralyzed with pancuronium bromide (2.5 mg/kg). Supplemental doses of urethane were given as necessary. […] End-tidal PCO2 was monitored using a flow-through capnograph (Novametrix, Wallingford, Conn.). Periodically throughout the protocol, arterial blood was collected (0.3 ml) in a heparinized syringe to ensure that values remained constant (PaO2<45 mmHg in hypoxia, PaO2>120 mmHg in hyperoxia, PaCO2±1 mmHg from baseline value). Arterial PCO2 was corrected to the target range by adjusting ventilator frequency as necessary.
Ninety minutes after surgery, stable integrated phrenic discharge was established in hyperoxia (baseline; 50% O2, PaO2>120 mmHg), with CO2 added to the inspired gas so that PaCO2 was 2-3 mmHg above the CO2 apneic threshold (45 mmHg). In rats receiving intrathecal injections of vehicle or drug solutions, a bolus injection of 10-15 μl was given, and 30-35 min were allowed for drugs to penetrate the spinal cord prior to beginning protocols. Blood gases were measured before, during, and 15, 30 and 60 min post-intermittent hypoxia or hypercapnia, or at corresponding times in control rats (without hypoxia or hypercapnia).
Intrathecal injections of K252a were performed prior to intermittent hypoxia; K252a was prepared as described above. Intrathecal K252a (n=6) or vehicle (DMSO+artificial CSF; n=5) was delivered 30 min prior to intermittent hypoxia, and phrenic discharge was monitored continuously for 60 min post-intermittent hypoxia.

phrenic motor output = assay: Phrenic activity following intrathecal BDNF injections; type: in vivo, rat; settings: 90 min post-injection
Procedure: (§1) Surgical procedures have been described elsewhere (7). Rats were anesthetized with isoflurane (2.5% in 50% O2), vagotomized and pump-ventilated (Harvard Apparatus, South Natick, Mass.). The phrenic nerve was dissected, cut distally and desheathed. A laminectomy was performed over C2, and a silicone catheter (2 French, Access Technologies; Skokie, Ill.) connected to a 50 μl glass syringe (Hamilton; Reno Nev.) was advanced through a small hole in the dura at C2, such that the tip of the catheter lay over C4-C5. Following surgery, rats were converted to urethane anesthesia (1.6 g/kg, i.v.) and were paralyzed with pancuronium bromide (2.5 mg/kg). Supplemental doses of urethane were given as necessary. […] End-tidal PCO2 was monitored using a flow-through capnograph (Novametrix, Wallingford, Conn.). […]
Respiratory-related activity was recorded in the phrenic nerve with a bipolar silver electrode. […] Phrenic activity was digitized, recorded and analyzed using the WINDAQ data acquisition system (DATAQ Instruments, Akron, Ohio).
An intrathecal catheter was placed and 10-13 μl solutions of BDNF (0.1 μg, n=5) or vehicle (artificial CSF+0.1% BSA; n=5) were injected. To determine if intrathecal BDNF injections unintentionally spread beyond the spinal cord to cranial motor pools, the hypoglossal nerve was also dissected, desheathed and recorded. […]

phrenic burst amplitude = type: in vivo, rat
Procedure: To determine if MAP kinase activation is sufficient to facilitate phrenic burst amplitude, one anesthetized rat was intrathecally injected with anisomycin ([…]; 20 mM), a protein synthesis inhibitor that also non-specifically activates MAP kinases.

[2] = tested on: BDNF protein concentration in ventral C3-C5; assay: Ventral C3-C5 BDNF protein concentration (ELISA) after intermittent hypoxia, intrathecal drug pretreatment; type: in vivo, rat; settings: 60 min post-intermittent hypoxia, intrathecal methysergide 250 microgram/kg or emetine 1 μg/kg 30 min prior
Procedure: as §1
Ninety minutes after surgery, stable integrated phrenic discharge was established in hyperoxia (baseline; 50% O2, PaO2>120 mmHg), with CO2 added to the inspired gas so that PaCO2 was 2-3 mmHg above the CO2 apneic threshold (45 mmHg). […] Blood gases were measured before, during, and 15, 30 and 60 min post-intermittent hypoxia or hypercapnia, or at corresponding times in control rats (without hypoxia or hypercapnia). […]

phrenic LTF = assay: pLTF following sustained hypoxia after protein phosphatase inhibition; type: in vivo, rat; settings: okadaic acid 0.15 mg; 20 mM intrathecally to C4 30 min prior to sustained hypoxia (25 min)
Procedure: Air, O2 and/or N2 were mixed to achieve the desired pattern of inspired oxygen concentration. […] Control groups receiving similar surgery or treatments, but not receiving hypoxia, […].
Accordingly, in one anesthetized rat, […] okadaic acid (0.15 mg; 20 mM), a protein phosphatase 1/2A (PP1 and PP2A) inhibitor, was delivered intrathecally to C4 30 min prior to sustained hypoxia (25 min). […] This finding has been successfully repeated in three additional rats.

TrkB receptor (rat) = TrkB receptor (rat) (UniProt Q63604); assay: cell-based or functional assay
TrkB receptor (rat), sequence (Q63604 32-821): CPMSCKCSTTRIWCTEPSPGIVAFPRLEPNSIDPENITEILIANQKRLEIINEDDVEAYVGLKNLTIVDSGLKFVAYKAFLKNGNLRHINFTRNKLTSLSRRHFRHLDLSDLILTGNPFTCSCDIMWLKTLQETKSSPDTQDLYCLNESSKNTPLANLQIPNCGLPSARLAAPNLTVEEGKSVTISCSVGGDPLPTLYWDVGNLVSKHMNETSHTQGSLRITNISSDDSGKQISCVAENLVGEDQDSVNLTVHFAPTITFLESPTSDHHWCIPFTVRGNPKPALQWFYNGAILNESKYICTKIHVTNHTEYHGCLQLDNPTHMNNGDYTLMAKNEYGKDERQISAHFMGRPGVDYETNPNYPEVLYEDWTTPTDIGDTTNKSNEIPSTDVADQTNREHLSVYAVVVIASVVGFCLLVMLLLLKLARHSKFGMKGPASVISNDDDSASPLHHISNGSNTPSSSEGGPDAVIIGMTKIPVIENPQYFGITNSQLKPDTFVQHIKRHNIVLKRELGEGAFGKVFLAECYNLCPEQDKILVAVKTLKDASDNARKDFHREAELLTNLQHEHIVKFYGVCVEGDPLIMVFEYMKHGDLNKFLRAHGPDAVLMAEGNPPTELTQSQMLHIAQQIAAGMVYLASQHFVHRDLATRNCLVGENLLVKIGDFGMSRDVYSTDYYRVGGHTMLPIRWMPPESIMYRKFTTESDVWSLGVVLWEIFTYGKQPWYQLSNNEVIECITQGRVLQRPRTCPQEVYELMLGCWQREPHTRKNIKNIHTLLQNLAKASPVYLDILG

[3] = tested on: hypoglossal nerve activity; assay: Hypoglossal nerve activity following intrathecal BDNF injections; type: in vivo, rat; settings: intrathecal BDNF 0.1 μg; 90 min post-injection
Procedure: An intrathecal catheter was placed and 10-13 μl solutions of BDNF (0.1 μg, n=5) or vehicle (artificial CSF+0.1% BSA; n=5) were injected. To determine if intrathecal BDNF injections unintentionally spread beyond the spinal cord to cranial motor pools, the hypoglossal nerve was also dissected, desheathed and recorded. […] In another group of rats, two intrathecal catheters were placed over C4, and a bolus injection of the tyrosine kinase inhibitor K252a was given 10 min prior to BDNF injection (BDNF+K252a; BDNF=0.1 μg; K252a=0.15 microgram, n=3). Recombinant human BDNF (Promega Corporation, Madison, Wis.) was dissolved in artificial CSF+0.1% bovine serum albumin (BSA). K252a (Calbiochem; San Diego, Calif.) was initially dissolved in dimethylsulfoxide (DMSO; 100 μg K252a in 1.5 ml DMSO) and frozen in 200 μl aliquots. Prior to experimentation, 0.8 ml artificial CSF was added to a 200 μl aliquot of K252a/DMSO solution, of which 10-15 μl was delivered intrathecally (final concentration of K252a=0.13-0.2 μg; 28 μM). Vehicle delivery was as described above (DMSO+artificial CSF), except K252a was not added. At 30, 60 and 90 min post-injection, arterial blood gases were analyzed to ensure that PaO2 and PaCO2 levels were similar to pre-injection values.

Molecule: COC(=O)[C@@]1(O)C[C@H]2O[C@]1(C)n1c3ccccc3c3c4c(c5c6ccccc6n2c5c31)C(=O)NC4 [K252a]
- phrenic burst amplitude increase from baseline (pLTF) ([1]; 60 min post-intermittent hypoxia, intrathecal K252a 0.13-0.2 μg 30 min prior): 25±6%
- BDNF-induced phrenic facilitation after K252a pre-treatment, change from baseline (phrenic motor output; intrathecal K252a 10 min prior to BDNF 0.1 μg): 9±10%

Molecule: CN([C@@H](Cc1ccc(OS(=O)(=O)c2cccc3cnccc23)cc1)C(=O)N1CCN(c2ccccc2)CC1)S(=O)(=O)c1cccc2cnccc12 [KN62]
- effect on pLTF [1]: did not block pLTF

Molecule: COc1ccc(S(=O)(=O)N(CCO)c2ccccc2CN(C)C/C=C/c2ccc(Cl)cc2)cc1 [KN93]
- effect on pLTF [1]: did not block pLTF

Molecule: N#CC(=C(/N)Sc1ccccc1N)/C(C#N)=C(/N)Sc1ccccc1N [UO126]
- effect on pLTF [1]: blocked pLTF
- effect of pretreatment on anisomycin-induced increase in phrenic amplitude (phrenic burst amplitude; UO126 0.4 mg, 100 mM pretreatment, n=1): prevented the effect

Molecule: COc1ccc(C[C@H]2NC[C@H](O)[C@H]2OC(C)=O)cc1 [anisomycin]
- phrenic burst amplitude increase above pre-injection levels (phrenic burst amplitude; one anesthetized rat, intrathecal anisomycin 100 mg, 20 mM, thirty min post-injection): 60%

Molecule: CC[C@H]1CN2CCc3cc(OC)c(OC)cc3[C@@H]2C[C@@H]1C[C@H]1NCCc2cc(OC)c(OC)cc21 [emetine]
- change in ventral cervical BDNF concentration from corresponding drug control [2]: 19±11%

Molecule: CC[C@@H](CO)NC(=O)[C@@H]1C=C2c3cccc4c3c(cn4C)C[C@H]2N(C)C1 [methysergide, methysergide maleate]
- change in ventral cervical BDNF concentration from corresponding drug control [2]: −10±8%

Molecule: C=C1[C@@H](O)[C@@H]2O[C@]3(CC[C@H](/C=C/[C@@H](C)[C@@H]4CC(C)=C[C@@]5(O[C@H](C[C@@](C)(O)C(=O)O)CC[C@H]5O)O4)O3)CC[C@H]2O[C@@H]1[C@@H](O)C[C@H](C)[C@H]1O[C@@]2(CCCCO2)CC[C@H]1C [okadaic acid]
- pLTF 60 min following sustained hypoxia (phrenic LTF): a modest pLTF was apparent

Molecule: Recombinant human BDNF (Promega Corporation) (from UniProt P23560 129-247) (ligand)
- integrated phrenic discharge (percent change from baseline) 90 min after intrathecal BDNF injection in anesthetized rats (% above baseline) (TrkB receptor (rat)): 125

B1: BDNF: Recombinant human BDNF (Promega), brain-derived neurotrophic factor (protein)
chain: HSDPARRGELSVCDSISEWVTAADKKTAVDMSGGTVTVLEKVPVSKGQLKQYFYETKCNPMGYTKEGCRGIDKRHWNSQCRTTQSYVRALTMDSKKRIGWRFIRIDTSCVCTLTIKRGR
- hypoglossal nerve activity, change from baseline [3]: 30±17%
- integrated phrenic discharge, change above baseline (phrenic motor output; intrathecal BDNF 0.1 μg): 125±25%
